Measured values as given in patent US10590129B2 (Incozen Therapeutics Pvt. Ltd., priority 2010, dated 2020).
Where a name gives a salt, the structure may show the parent alone.

tested on: MKN-45 cells; assay: Inhibition of MKN-45 proliferation (MTT); assay type: cell-based, human; conditions: Homo sapiens, MKN-45, MKN-45 proliferation
Procedure: Inhibition of MKN-45 Proliferation:
Cell proliferation assays were carried out using the high Met expressing human gastric adenocarcinoma cell line, MKN-45, according to the following schedule:
Day 1: Cells were plated in 96-well plates in complete growth medium.
Day 2: Compounds at desired concentrations were added.
Day 5: Cell viability was determined using the 3-[4,5-dimethylthiazol-2-yl]-2,5-diphenyltetrazolium bromide (MTT) dye reduction test.

SMILES | GI50 [nM]
CC(c1ccc2ncccc2c1)n1nnc2ccc(-c3ccc(C(N)=O)c(Cl)c3)nc21 (racemic) [Ex 214, 2-Chloro-4-(3-(1-(quinolin-6-yl)ethyl)-3H-[1,2,3]triazolo[4,5-b]pyridin-5-yl)benzamide] | ≤ 50
C[C@H](c1ccc2ncccc2c1)n1nnc2ccc(-c3ccc(C(N)=O)c(Cl)c3)nc21 [Ex222] | 150 to 500
O=C(c1ccc(-c2ccc3nnn(Cc4ccc5ncccc5c4)c3n2)cc1)N1CCC[C@H]1CN1CCCC1 [Ex 32, (S)-(2-(pyrrolidin-1-ylmethyl)pyrrolidin-1-yl)(4-(3-(quinolin-6-ylmethyl)-3H-[1,2,3]triazolo[4,5-b]pyridin-5-yl)phenyl)methanone hydrochloride] | < 1000
O=C(c1ccc(-c2ccc3nnn(Cc4ccc5ncccc5c4)c3n2)cc1)N1CCN(CCO)CC1 [Ex 33, (4-(2-hydroxyethyl)piperazin-1-yl)(4-(3-(quinolin-6-ylmethyl)-3H-[1,2,3]triazolo[4,5-b]pyridin-5-yl)phenyl)methanone] | 150 to 500
O=C(NCCN1CCCCC1)c1ccc(-c2ccc3nnn(Cc4ccc5ncccc5c4)c3n2)cc1 [Ex 35, N-(2-(piperidin-1-yl)ethyl)-4-(3-(quinolin-6-ylmethyl)-3H-[1,2,3]triazolo[4,5-b]pyridin-5-yl)benzamide] | 50 to 150
O=C(NCCN1CCOCC1)c1ccc(-c2ccc3nnn(Cc4ccc5ncccc5c4)c3n2)cc1 [Ex 36, N-(2-morpholinoethyl)-4-(3-(quinolin-6-ylmethyl)-3H-[1,2,3]triazolo[4,5-b]pyridin-5-yl)benzamide] | 50 to 150
O=C(NCCN1CCCC1)c1ccc(-c2ccc3nnn(Cc4ccc5ncccc5c4)c3n2)cc1 [Ex 37, N-(2-(pyrrolidin-1-yl)ethyl)-4-(3-(quinolin-6-ylmethyl)-3H-[1,2,3]triazolo[4,5-b]pyridin-5-yl)benzamide] | ≤ 50
O=C(c1ccc(-c2ccc3nnn(Cc4ccc5ncccc5c4)c3n2)cc1)N1CCC(N2CCCC2)CC1 [Ex 38, (4-(pyrrolidin-1-yl)piperidin-1-yl)(4-(3-(quinolin-6-ylmethyl)-3H-[1,2,3]triazolo[4,5-b]pyridin-5-yl)phenyl)methanone] | < 1000
COCCN(CCOC)C(=O)c1ccc(-c2ccc3nnn(Cc4ccc5ncccc5c4)c3n2)cc1 [Ex 40, N,N-Bis(2-methoxyethyl)-4-(3-(quinolin-6-ylmethyl)-3H-[1,2,3]triazolo[4,5-b]pyridin-5-yl)benzamide hydrochloride] | < 1000
O=C(NCCN1CCCC1)c1ccc(-c2ccc3nnn(Cc4ccc5ncccc5c4)c3n2)cc1F [Ex 44, 2-Fluoro-N-(2-(pyrrolidin-1-yl)ethyl)-4-(3-(quinolin-6-ylmethyl)-3H-[1,2,3]triazolo[4,5-b]pyridin-5-yl)benzamide] | 50 to 150

Continued, values first:

GI50 [nM] | SMILES
50 to 150 | O=C(NC1CCCCC1)c1ccc(-c2ccc3nnn(Cc4ccc5ncccc5c4)c3n2)cc1F [Ex45]
50 to 150 | CNC(=O)c1cccc(-c2ccc3nnn(Cc4ccc5ncccc5c4)c3n2)c1 [Ex55]
≤ 50 | C=CCNC(=O)c1ccc(-c2ccc3nnn(Cc4ccc5ncccc5c4)c3n2)cc1F [Ex61]
≤ 50 | CONC(=O)c1ccc(-c2ccc3nnn(Cc4ccc5ncccc5c4)c3n2)cc1F [Ex62]
< 1000 | CN1CCN(C(=O)c2ccc(-c3ccc4nnn(Cc5ccc6ncccc6c5)c4n3)cc2)CC1 [Ex 26, (4-Methylpiperazin-1-yl)(4-(3-(quinolin-6-ylmethyl)-3H-[1,2,3]triazolo[4,5-b]pyridin-5-yl)phenyl)methanone]
50 to 150 | CN(C)CCNC(=O)c1ccc(-c2ccc3nnn(Cc4ccc5ncccc5c4)c3n2)cc1 [Ex 27, N-(2-(dimethylamino)ethyl)-4-(3-(quinolin-6-ylmethyl)-3H-[1,2,3]triazolo[4,5-b]pyridin-5-yl)benzamide]
150 to 500 | O=C(NC1CCOCC1)c1ccc(-c2ccc3nnn(Cc4ccc5ncccc5c4)c3n2)cc1 [Ex 28, 4-(3-(quinolin-6-ylmethyl)-3H-[1,2,3]triazolo[4,5-b]pyridin-5-yl)-N-(tetrahydro-2H-pyran-4-yl)benzamide]
150 to 500 | O=C(NC1CCNCC1)c1ccc(-c2ccc3nnn(Cc4ccc5ncccc5c4)c3n2)cc1 [Ex 30, N-(Piperidin-4-yl)-4-(3-(quinolin-6-ylmethyl)-3H-[1,2,3]triazolo[4,5-b]pyridin-5-yl)benzamide hydrochloride]
150 to 500 | CN(C)CCNC(=O)c1ccc(-c2ccc3nnn(Cc4ccc5ncccc5c4)c3n2)cc1F [Ex 31, N-(2-(dimethylamino)ethyl)-2-fluoro-4-(3-(quinolin-6-ylmethyl)-3H-[1,2,3]triazolo[4,5-b]pyridin-5-yl)benzamide]
< 1000 | O=C(c1ccc(-c2ccc3nnn(Cc4ccc5ncccc5c4)c3n2)cc1)N1CC[C@@H](O)C1 [Ex 34, (R)-(3-hydroxypyrrolidin-1-yl)(4-(3-(quinolin-6-ylmethyl)-3H-[1,2,3]triazolo[4,5-b]pyridin-5-yl)phenyl)methanone hydrochloride]
50 to 150 | CN(C)CCCNC(=O)c1ccc(-c2ccc3nnn(Cc4ccc5ncccc5c4)c3n2)cc1 [Ex 39, N-(3-(dimethylamino)propyl)-4-(3-(quinolin-6-ylmethyl)-3H-[1,2,3]triazolo[4,5-b]pyridin-5-yl)benzamide]

same assay, conditions: Homo sapiens, MKN-45, MKN-45 proliferation, 0.1 μM

SMILES | inhibition at 0.1 µM [%]
CCNC(=O)c1ccc(-c2ccc3nnn(Cc4ccc5c(ccc[n+]5[O-])c4)c3n2)cc1Cl | < 25
Cc1n[nH]cc1-c1ccc2nnn(Cc3ccc4ncccc4c3)c2n1 | 25 to 50
CC(c1ccc2ncccc2c1)n1nnc2ccc(-c3ccc(C(N)=O)c(Cl)c3)nc21 (racemic) [Ex 214, 2-Chloro-4-(3-(1-(quinolin-6-yl)ethyl)-3H-[1,2,3]triazolo[4,5-b]pyridin-5-yl)benzamide] | 75 to 100
C/C(=N/NC(=O)c1ccncc1)c1ccc2nnn(Cc3ccc4ncccc4c3)c2n1 (single isomer, unassigned) [Ex 220, N′-(1-(3-(quinolin-6-ylmethyl)-3H-[1,2,3]triazolo[4,5-b]pyridin-5-yl)ethylidene)iso-nicotinohydrazide] | < 25
Nc1ccc(-c2ccc3nnn(Cc4ccc5ncccc5c4)c3n2)cc1 [Ex64] | < 25
O=C(NCc1ccco1)c1ccc(-c2ccc3nnn(Cc4ccc5ncccc5c4)c3n2)cc1F [Ex92] | < 25
O=C(NC1CC1)c1ccc(-c2ccc3nnn(Cc4ccc5ncccc5c4)c3n2)cc1Cl [Ex113] | 75 to 100
CNC(=O)c1cccc(-c2ccc3nnn(Cc4ccc5ncccc5c4)c3n2)c1 [Ex 55, N-Methyl-3-(3-(quinolin-6-ylmethyl)-3H-[1,2,3]triazolo[4,5-b]pyridin-5-yl)benzamide] | < 25
O=C(O)CCNc1ccc(-c2ccc3nnn(Cc4ccc5ncccc5c4)c3n2)cc1F [Ex 58, 3-(2-Fluoro-4-(3-(quinolin-6-ylmethyl)-3H-[1,2,3]triazolo[4,5-b]pyridin-5-yl)phenylamino)propanoic acid] | < 25
CCNC(=O)c1ccc(-c2ccc3nnn(Cc4ccc5ncccc5c4)c3n2)cc1F [Ex 73, N-Ethyl-2-fluoro-4-(3-(quinolin-6-ylmethyl)-3H-[1,2,3]triazolo[4,5-b]pyridin-5-yl)benzamide hydrochloride] | 75 to 100

same assay, conditions: Homo sapiens, MKN-45, MKN-45 proliferation, 1 μM

SMILES | inhibition at 1 µM [%]
CCNC(=O)c1ccc(-c2ccc3nnn(Cc4ccc5c(ccc[n+]5[O-])c4)c3n2)cc1Cl | < 25
Cc1n[nH]cc1-c1ccc2nnn(Cc3ccc4ncccc4c3)c2n1 | < 25
O=C(O)CCNc1ccc(-c2ccc3nnn(Cc4ccc5ncccc5c4)c3n2)cc1F [Ex 58, 3-(2-Fluoro-4-(3-(quinolin-6-ylmethyl)-3H-[1,2,3]triazolo[4,5-b]pyridin-5-yl)phenylamino)propanoic acid] | < 25
CCNC(=O)c1ccc(-c2ccc3nnn(Cc4ccc5ncccc5c4)c3n2)cc1F [Ex 73, N-Ethyl-2-fluoro-4-(3-(quinolin-6-ylmethyl)-3H-[1,2,3]triazolo[4,5-b]pyridin-5-yl)benzamide hydrochloride] | 50 to 75

same assay, conditions: Homo sapiens; MKN-45 proliferation, 1 μM

SMILES | inhibition at 1 µM [%]
O=C(O)c1ccc(-c2ccc3nnn(Cc4ccc5ncccc5c4)c3n2)cc1 [Ex 22, Lithium 4-(3-(quinolin-6-ylmethyl)-3H-[1,2,3]triazolo[4,5-b]pyridin-5-yl)benzoate] | < 25

same assay, conditions: MKN-45 proliferation; hydrochloride

GI50 [nM] | SMILES
50 to 150 | OCc1ccc(-c2ccc3nnn(Cc4ccc5ncccc5c4)c3n2)cc1F [Ex41, hydrochloride]
